Experimental data published in patent publication US6703536B2, “Disposable absorbent article having a skin care composition containing an enzyme inhibitor” (The Procter & Gamble Company, priority 1998, dated 2004).
Where a name gives a salt, the structure may show the parent alone.

Legend:
[1] = biological target: protease activity in feces; test: General Fecal Enzymes Method (casein-resorufin cleavage); type: biochemical, infant; details: fecal suspension, casein-resorufin substrate, pH 7.8, 37° C. for 60 minutes
From the text: (§1) Pooled infant feces (at least five different samples) are collected in a manner to keep them free of urine and contamination and mixed with water to obtain a weight by weight (w/w) mixture (e.g., 1:50 w/w). This mixture is then mixed thoroughly to obtain a homogeneous suspension by homogenization or sonication. […] (Also, to ensure complete linearity the final absorbance should never exceed 1.5 OD405 units). If the activity of the pooled infant feces is outside this range, it is not possible to accurately determine IC50 values for putative protease inhibitors. However, the range of enzyme activity may be adjusted by increasing or decreasing the dilution factor accordingly for each enzyme. If this is not possible, a different group of subjects should be used to obtain the sample pool.
The general method described above for obtaining a sample of feces suitable for use in Specific Fecal Enzyme Methods can be easily adapted by one skilled in the art to obtain appropriate samples of feces suitable for use in the General Fecal Enzymes Method listed below without undue experimentation.
To test the efficacy of protease inhibitors against the protease activity in feces, 50 μL of inhibitor and 50 μL of fecal suspension are added to a 1.5 mL microcentrifuge tube. The microcentrifuge tube is mixed by inversion and incubated at 25° C. for 45 minutes. Then, 50 μL of protease buffer (200 mM TRIS buffer containing 20 mM CaCl2, pH 7.8) is added to the microcentrifuge tube. The microcentrifuge tube is again mixed by inversion and incubated at 25° C. for 45 minutes. […] The microcentrifuge tube is again mixed by inversion and incubated at 37° C. for 60 minutes for the substrate cleavage reaction to take place. Then, 480 μL of trichloroacetic acid (5% w/v) is added to stop the reaction and precipitate any unreacted casein-resorufin. The microcentrifuge tube is mixed by inversion incubated at 37° C. for 15 minutes. […] Then, 400 μL of the supernatant is added to 600 μL of assay buffer (0.5 M TRIS, pH 8.8) in a cuvette. […] The same procedure is repeated without the putative inhibitor. […] Before the start of the reaction, A and Ai are nearly zero. […] The rates, vi and v, and the inhibitor concentration [I] are used to calculate IC50 according to the equation expressed above.

[2] = biological target: trypsin activity in feces; test: Fecal Trypsin Activity (Specific Fecal Enzyme Method); type: biochemical; details: pooled infant fecal suspension, pH 8.2, 25° C.; read-out: IC50 Specific Fecal Enzyme Methods Trypsin
From the text: (§2) The following is a general description of a method for obtaining a sample of feces suitable for use in Fecal Protease Methods. However, one skilled in the art will be able to adapt the method to obtain appropriate samples of feces suitable for use in any of the Specific Fecal Protease Methods listed below (i.e., lipase, urease, and amylase) without undue experimentation.
as §1
To test the efficacy of protease inhibitors against the trypsin activity in feces, inhibitor and trypsin buffer (50 mM TRIS, 20 mM CaCl2, pH 8.2) are added in a cuvette to obtain a final volume of 0.8 mL. To this mixture, 0.1 mL of substrate (3 mM Cbz-arginine-p-nitroanilide) is added to the cuvette. The cuvette is mixed by inversion and incubated at 25° C. for 5 minutes. A volume of 0.1 mL of fecal suspension is added to the cuvette, mixed and the absorbance at 405 nm minus the absorbance at 490 nm are measured over 5 minutes at 25° C. (The absorbance at 490 nm is a correction factor for the background absorbance due to the particulate fecal material, i.e., “interference”). The rate of substrate cleavage in the presence of inhibitor (vi) is the slope of a plot relating the excess absorbance (i.e., the absorbance at 405 nm minus the absorbance at 490 nm) versus time. The same procedure is repeated without the putative inhibitor. The rate of substrate cleavage in the absence of inhibitor (v) is the slope of a plot relating the excess absorbance versus time. The rates, vi and v, and the inhibitor concentration [I] are used to calculate IC50 according to the equation expressed above.

[3] = biological target: chymotrypsin activity in feces; test: Fecal Chymotrypsin Activity (Specific Fecal Enzyme Method); type: biochemical; details: pooled infant fecal suspension, pH 7.6, 25° C.; read-out: IC50 Specific Fecal Enzyme Methods Chymotryp.
From the text: The following is a general description of a method for obtaining a sample of feces suitable for use in Fecal Protease Methods. However, one skilled in the art will be able to adapt the method to obtain appropriate samples of feces suitable for use in any of the Specific Fecal Protease Methods listed below (i.e., lipase, urease, and amylase) without undue experimentation. […] Pooled infant feces (at least five different samples) are collected in a manner to keep them free of urine and contamination and mixed with water to obtain a weight by weight (w/w) mixture (e.g., 1:50 w/w). This mixture is then mixed thoroughly to obtain a homogeneous suspension by homogenization or sonication. […] (Also, to ensure complete linearity the final absorbance should never exceed 1.5 OD405 units). If the activity of the pooled infant feces is outside this range, it is not possible to accurately determine IC50 values for putative protease inhibitors. However, the range of enzyme activity may be adjusted by increasing or decreasing the dilution factor accordingly for each enzyme. If this is not possible, a different group of subjects should be used to obtain the sample pool. […] The cuvette is mixed by inversion and incubated at 25° C. for 5 minutes. […] The rate of substrate cleavage in the presence of inhibitor (vi) is the slope of a plot relating the excess absorbance (i.e., the absorbance at 405 nm minus the absorbance at 490 nm) versus time. The same procedure is repeated without the putative inhibitor. The rate of substrate cleavage in the absence of inhibitor (v) is the slope of a plot relating the excess absorbance versus time. The rates, vi and v, and the inhibitor concentration [I] are used to calculate IC50 according to the equation expressed above.

LAP activity in feces = test: Fecal LAP Activity (Specific Fecal Enzyme Method); type: biochemical; details: pooled infant fecal suspension, pH 7.2, 25° C.; read-out: IC50 Specific Fecal Enzyme Methods LAP
From the text: as §2, §1
To test the efficacy of protease inhibitors against LAP activity in feces, inhibitor and LAP buffer (50 mM sodium phosphate, pH 7.2) are added in a cuvette to obtain a final volume of 0.95 mL. To this mixture, 0.03 mL of substrate (6 mM L-Leucine-p-nitroanilide) is added to the cuvette. The cuvette is mixed by inversion and incubated at 25° C. for 5 minutes. A volume of 0.02 mL of fecal suspension is added to the cuvette, mixed and the absorbance at 405 nm minus the absorbance at 490 nm measured over 5 minutes at 25° C. The rate of substrate cleavage in the presence of inhibitor (vi) is the slope of a plot relating the excess absorbance (i.e., the absorbance at 405 nm minus the absorbance at 490 nm) versus time. The same procedure is repeated without the putative inhibitor. The rate of substrate cleavage in the absence of inhibitor (v) is the slope of a plot relating the excess absorbance versus time. The rates, vi and v, and the inhibitor concentration [I] are used to calculate IC50 according to the equation expressed above.

Row | Compound | IC50 [1] [µM] | IC50 [2] [µM] | IC50 [3] [µM] | IC50 (LAP activity in feces) [µM]
1 | NCCc1ccc(S(=O)(=O)F)cc1 [4-(2-aminoethyl)-benzenesulfonylfluoride hydrochloride] | 217 | – | – | –
2 | O=C(O)CN(CCN(CC(=O)O)CC(=O)O)CC(=O)O [EDTA, ethylenediamine tetraacetic acid] | – | 100 | 100 | > 3000
